Measurements: patent US20040029908A1, “Tricyclo compounds, a process for their production and a pharmaceutical composition containing the same” (FUJISAWA PHARMACEUTICAL CO., LTD., priority 1984, published 2004)
Converted amounts (≈) assume the structure as drawn.

Assays:
[1] = test system: Skin Allograft Survival in Rats (Fischer donor, WKA recipient); assay: Skin Allograft Survival in Rats; format: in vivo, rat; settings: daily treatment, intramuscularly, 14 consecutive days
Description: Vental allografts from donor (Fischer) rats were grafted onto the lateral thoracic area of recipient (WKA) rats. The dressings were removed on day 5. The grafts were inspected daily until rejection which was defined as more than 90% necrosis of the graft epitherium.
The FR-900506 substance was dissolved in olive oil and administered intramuscularly for 14 consecutive days, beginning at the day of transplantation.

[2] = test system: DTH to MBSA in BDF1 mice; assay: Delayed Type Hypersensitivity (DTH) Response to methylated bovine serum albumin (MBSA); format: in vivo, mouse
Description: Female BDF1 mice were used for this test. The mice were sensitized with a subcutaneous injection of 0.1 ml emulsion consisting of equal volume of MBSA (2 mg/ml) and Freund's incomplete adjuvant(FIA). Seven days later, a 0.05 ml challenge dose of 0.4 mq/ml MIBSA in saline was injected into the plantar region of the right hind foot and 0.05 ml saline into the left hind foot to act as a control. Twenty four hours after challenge, both hind feet were measured with a dial gauge and the mean challenge in footpad thickness was measured. The FR-900506 substance was injected for 8 days orally, starting from the sensitization.

[3] = test system: Aspergillus fumigatus IFO 5840; assay: Antimicrobial activity, serial agar dilution method in Sabouraud agar; format: cell-based; settings: IFO5840, 30° C., 24 hours
Description: (§1) Antimicrobial activities of the tricyclo compounds (I) against various fungi were determined by a serial agar dilution method in a Sabouraud agar. Minimum inhibitory concentrations (MIC) were expressed in terms of μg/ml after incubation at 30° C. for 24 hours.

[4] = test system: Fusarium oxysporum; assay: as above; format: cell-based; settings: 30° C., 24 hours
Description: as §1

[5] = test system: Interleukin-2 (IL-2) Production; assay: Inhibition of Interleukin-2 (IL-2) Production in MLR, CTLL-2 bioassay; format: cell-based, mouse; settings: for IL-2: MLR supernatant at 48 hours
Description: The mixed lymphocyte reaction (MILR) was performed in microtiter plates, with each well containing 5 ×10^5 C57BL/6 responder cells (H-2^b), 5 ×10^5 mitomycin C treated (25 μg/ml mitomycin C at 37° C. for 30 minutes and washed three times pith RPMI 1640 medium) BALB/C stimulator cells ([…]) in 0.2 ml RPMI 1640 medium supplemented with 10% fetal calf serum, 2mM sodium hydrogen carbonate, penicillin 20 (50 unites/ml) and streptomycin (50 μg/ml) . The cells were incubated at 37° C. in humidified atmosphere of 5% carbon dioxide and 95% of air for 48 hours and the supernatant was collected. The FR-900506 substance was dissolved in ethanol and further diluted in RPMI 1640 medium and added to the cultures to give final concentrations of 0.1 μg/ml or less.
The IL-2 activity was measured according to the method described by S. Gillis et. al. [Journal of Inununology, Vol. 120, page 2027, (1978)]. The IL-2 dependent CTLL-2 cell line was used to quantitate IL-2 activity. Cells (5 ×10^3/well) were cultured at 37° C. for 24 hours with various dilutions of IL-2 containing supernatant from MLR. The uptake of ^3H-thymidine was measured by pulsing cultures with 0.5 uCi of 1T-thymidine for 6 hours. The unit value was calculated by dilution analysis of test sample and was compared with a laboratory standard preparation in which 100 units are equivalent to the amount of IL-2 necessary to achieve 50% proliferation of CTLL-2 cells.

C=CCC1/C=C(\C)CC(C)CC(OC)C2OC(O)(C(=O)C(=O)N3CCCCC3C(=O)OC(/C(C)=C/C3CCC(O)C(OC)C3)C(C)C(O)CC1=O)C(C)CC2OC (stereo not shown) [FR-900506, 17-Allyl-1,14-dihydroxy-12-[2-(4-hydroxy-3-methoxycyclohexyl)-1-methyvinyl]-23-25-dimethoxy-13,19,21,27-tetramethyl-11,28-dioxa-4-azatricyclo[22.3.1.0^4,9]octacos-18-ene-2,3,10,16-tetraone]
Effect on skin allograft survival (in words) [1]: clearly prolonged skin allograft survival | Footpad Swelling ([2]; 10 mg/kg orally for 8 days): 31.0 ± 4.4 × 10^−3 cm | Footpad Swelling ([2]; 32 mg/kg orally for 8 days): 20.8 ± 4.4 × 10^−3 cm | Footpad Swelling ([2]; 100 mg/kg orally for 8 days): 7.8 ± 1.6 × 10^−3 cm | ED50 ([2]; Mus musculus, po, 192 h, orally for 8 days starting from the sensitization): 18.4 mg/kg | MIC [3]: 0.025 µg/mL (≈ 0.0311 µM) | MIC [4]: 0.05 µg/mL (≈ 0.0622 µM) | Production of IL-2 from mouse MLR (in words) [5]: inhibited the production of Il-2 from mouse MLR | IL-2 ([5]; 0.1 nM): 25.0 units/ml | IL-2 ([5]; 0.3 nM): 0.2 units/ml | IL-2 ([5]; 1 nM): 0 units/ml | IL-2 ([5]; 10 nM): 0 units/ml | inhibition at 0.0001 µM ([5]; Mus musculus, CTLL-2, 0.1 nM): 34.4% | inhibition at 0.0003 µM ([5]; Mus musculus, CTLL-2, 0.3 nM): 99.5% | inhibition at 0.001 µM ([5]; Mus musculus, CTLL-2, 1 nM): 100% | inhibition at 0.01 µM ([5]; Mus musculus, CTLL-2, 10 nM): 100%
